Source: patent publication US20070117743A1, “New antitumoral compounds” (priority 2003, published 2007)
Where a SMILES comes first, the peptide text is derived from it. Bridges are numbered along the chain shown (N, C = ends). [ ]: non-standard residue; d: D form. The star is where a group is joined. d(aIle) = CC[C@H](C)[C@@H](N)C(=O)O; d(aThr) = C[C@@H](O)[C@@H](N)C(=O)O; Hexanoyl(5-Me) = CC(C)CCCC(=O)*; Orn = NCCC[C@H](N)C(=O)O; Dhb = C/C=C(\N)C(=O)O

Tests used:
Format in all cases: cell-based, human
A-549 = assay: SRB colorimetric assay of cell growth and viability, A-549; conditions: 48 hours exposure; for GI50: read-out: GI50 A-549; for CC50: read-out: LC50 A-549
SK-MEL-28 = assay: SRB colorimetric assay of cell growth and viability, SK-MEL-28; conditions: 48 hours exposure; for CC50: read-out: LC50 MEL-28
HT-29 = assay: SRB colorimetric assay of cell growth and viability, HT-29; conditions: 48 hours exposure; for GI50: read-out: GI50 HT-29; for CC50: read-out: LC50 HT-29
LoVo = assay: SRB colorimetric assay of cell growth and viability, LoVo; conditions: 48 hours exposure; for CC50: read-out: LC50 LOVO
DU-145 = assay: SRB colorimetric assay of cell growth and viability, DU-145; conditions: 48 hours exposure
LNCaP = assay: SRB colorimetric assay of cell growth and viability, LNCaP; conditions: 48 hours exposure; for GI50: read-out: GI50 LN-caP; for CC50: read-out: LC50 LN-caP
SK-BR-3 = assay: SRB colorimetric assay of cell growth and viability, SK-BR-3; conditions: 48 hours exposure
IGROV-1 = assay: SRB colorimetric assay of cell growth and viability, IGROV-1; conditions: 48 hours exposure
IGROV-ET = assay: SRB colorimetric assay of cell growth and viability, IGROV-ET; conditions: 48 hours exposure; for CC50: read-out: LC50 IGROV-ET
HeLa = assay: SRB colorimetric assay of cell growth and viability, HeLa; conditions: 48 hours exposure; for CC50: read-out: LC50 HELA
HeLa-APL = assay: SRB colorimetric assay of cell growth and viability, HeLa-APL; conditions: 48 hours exposure; for CC50: read-out: LC50 HELA-APL
K-562 = assay: SRB colorimetric assay of cell growth and viability, K-562; conditions: 48 hours exposure; for CC50: read-out: LC50 K-562
PANC-1 = assay: SRB colorimetric assay of cell growth and viability, PANC-1; conditions: 48 hours exposure; for CC50: read-out: LC50 PANC-1

## C/C=C1\NC(=O)[C@H](Cc2ccccc2)NC(=O)[C@@H](C(C)C)NC(=O)[C@@H]([C@@H](C)CC)NC(=O)[C@H](NC(=O)[C@H](NC(=O)[C@H](CCCN)NC(=O)[C@H]2CCCN2C(=O)[C@H](NC(=O)[C@H](NC(=O)[C@@H](NC(=O)[C@H](NC(=O)CCCC(C)C)C(C)C)[C@@H](C)O)C(C)C)C(C)C)[C@@H](C)CC)[C@@H](C)OC(=O)[C@H](C(C)C)NC1=O [Compound 46, [D-Val^11]-KF]
A-549
  TGI A-549: 6.77E−06 Molar
  GI50: 3.67 µM
  CC50: ≥ 6.77 µM
SK-MEL-28
  GI50: ≥ 6.77 µM
  TGI MEL-28: 6.77E−06 Molar
  CC50: ≥ 6.77 µM
HT-29
  TGI HT-29: 6.77E−06 Molar
  GI50: 2.5 µM
  CC50: ≥ 6.77 µM
LoVo
  GI50: 1.2 µM
  TGI LOVO: 2.30E−06 Molar
  CC50: 4.4 µM
DU-145
  GI50: 2.43 µM
  LC50 (concentration causing 50% net cell kill): ≥ 6.77 µM
  TGI DU-145: 6.77E−06 Molar
LNCaP
  TGI LN-caP: 6.77E−06 Molar
  GI50: 2.42 µM
  CC50: ≥ 6.77 µM
SK-BR-3
  GI50: 1.35 µM
  LC50: 5.62 µM
  TGI SK-BR-3: 2.75E−06 Molar
IGROV-1
  GI50: 1.5 µM
  LC50 (concentration causing 50% net cell killing): ≥ 6.77 µM
  TGI IGROV: 3.55E−06 Molar
IGROV-ET
  GI50: 1.67 µM
  TGI IGROV-ET: 3.62E−06 Molar
  CC50: ≥ 6.77 µM
HeLa
  GI50: 4.61 µM
  TGI HELA: 6.77E−06 Molar
  CC50: ≥ 6.77 µM
HeLa-APL
  GI50: 3.3 µM
  TGI HELA-APL: 6.77E−06 Molar
  CC50: ≥ 6.77 µM
K-562
  GI50: 3.04 µM
  TGI K-562: 6.77E−06 Molar
  CC50: ≥ 6.77 µM
PANC-1
  GI50: 3.12 µM
  TGI PANC-1: 6.77E−06 Molar
  CC50: ≥ 6.77 µM

## C/C=C1\NC(=O)[C@H](Cc2ccccc2)NC(=O)[C@@H](C(C)C)NC(=O)[C@@H]([C@@H](C)CC)NC(=O)[C@H](NC(=O)[C@H](NC(=O)[C@H](CCCN)NC(=O)[C@H]2CCCN2C(=O)[C@H](NC(=O)[C@@H](NC(=O)[C@@H](NC(=O)[C@H](NC(=O)c2ccccc2)C(C)C)[C@@H](C)O)C(C)C)C(C)C)[C@@H](C)CC)[C@@H](C)OC(=O)[C@H](C(C)C)NC1=O [Compound 20, [Bza^14]-KF]
A-549
  TGI A-549: 1.95E−06 Molar
  GI50: 0.952 µM
  CC50: 3.97 µM
SK-MEL-28
  GI50: 1.2 µM
  TGI MEL-28: 2.26E−06 Molar
  CC50: 4.23 µM
HT-29
  TGI HT-29: 1.64E−06 Molar
  GI50: 0.694 µM
  CC50: 3.88 µM
LoVo
  GI50: 0.128 µM
  TGI LOVO: 3.03E−07 Molar
  CC50: 0.81 µM
DU-145
  GI50: 0.939 µM
  LC50 (concentration causing 50% net cell kill): 4.25 µM
  TGI DU-145: 1.99E−06 Molar
LNCaP
  TGI LN-caP: 2.87E−06 Molar
  GI50: 1.18 µM
  CC50: 6.8 µM
SK-BR-3
  GI50: 0.32 µM
  LC50: 3.38 µM
  TGI SK-BR-3: 1.16E−06 Molar
IGROV-1
  GI50: 0.714 µM
  LC50 (concentration causing 50% net cell killing): 4.2 µM
  TGI IGROV: 1.73E−06 Molar
IGROV-ET
  GI50: 0.755 µM
  TGI IGROV-ET: 1.78E−06 Molar
  CC50: 4.2 µM
HeLa
  GI50: 1.11 µM
  TGI HELA: 2.30E−06 Molar
  CC50: 4.76 µM
HeLa-APL
  GI50: 1.01 µM
  TGI HELA-APL: 2.08E−06 Molar
  CC50: 4.27 µM
K-562
  GI50: 0.305 µM
  TGI K-562: 2.12E−06 Molar
  CC50: 6.8 µM
PANC-1
  GI50: 3.79 µM
  TGI PANC-1: 6.80E−06 Molar
  CC50: 6.8 µM

## C/C=C1\NC(=O)[C@H](Cc2ccccc2)NC(=O)[C@@H](C(C)C)NC(=O)[C@@H]([C@@H](C)CC)NC(=O)[C@H](NC(=O)[C@H](NC(=O)[C@H](CCCN)NC(=O)[C@H]2CCCN2C(=O)[C@H](NC(=O)[C@H](CCC(N)=O)NC(=O)[C@@H](NC(=O)[C@H](NC(=O)CCCC(C)C)C(C)C)[C@@H](C)O)C(C)C)[C@@H](C)CC)[C@@H](C)OC(=O)[C@H](C(C)C)NC1=O [Compound 48, [Gln^11]-KF] ({Hexanoyl(5-Me)}-[dV]TQ[dV][dP][Orn][d(aIle)][d(aThr)][d(aIle)][dV]F[Dhb]V; ester 8-C)
A-549
  TGI A-549: 6.64E−06 Molar
  GI50: 5.82 µM
  CC50: 6.64 µM
SK-MEL-28
  GI50: 6.64 µM
  TGI MEL-28: 6.64E−06 Molar
  CC50: 6.64 µM
HT-29
  TGI HT-29: 6.64E−06 Molar
  GI50: 6.64 µM
  CC50: 6.64 µM
LoVo
  GI50: 5.17 µM
  TGI LOVO: 6.64E−06 Molar
  CC50: 6.64 µM
DU-145
  GI50: 6.64 µM
  LC50 (concentration causing 50% net cell kill): 6.64 µM
  TGI DU-145: 6.64E−06 Molar
LNCaP
  TGI LN-caP: 6.64E−06 Molar
  GI50: 3.1 µM
  CC50: 6.64 µM
SK-BR-3
  GI50: 6.64 µM
  LC50: 6.64 µM
  TGI SK-BR-3: 6.64E−06 Molar
IGROV-1
  GI50: 6.64 µM
  LC50 (concentration causing 50% net cell killing): 6.64 µM
  TGI IGROV: 6.64E−06 Molar
IGROV-ET
  GI50: 6.64 µM
  TGI IGROV-ET: 6.64E−06 Molar
  CC50: 6.64 µM
HeLa
  GI50: 6.64 µM
  TGI HELA: 6.64E−06 Molar
  CC50: 6.64 µM
HeLa-APL
  GI50: 6.64 µM
  TGI HELA-APL: 6.64E−06 Molar
  CC50: 6.64 µM
K-562
  GI50: 6.64 µM
  TGI K-562: 6.64E−06 Molar
  CC50: 6.64 µM
PANC-1
  GI50: 5.1 µM
  TGI PANC-1: 6.64E−06 Molar
  CC50: 6.64 µM

## C/C=C1\NC(=O)[C@H](Cc2ccccc2)NC(=O)[C@@H](C(C)C)NC(=O)[C@@H]([C@@H](C)CC)NC(=O)[C@H](NC(=O)[C@H](NC(=O)[C@H](CCCN)NC(=O)[C@H]2CCCN2C(=O)[C@H](NC(=O)[C@@H]2CCCN2C(=O)[C@@H](NC(=O)[C@H](NC(=O)CCCC(C)C)C(C)C)[C@@H](C)O)C(C)C)[C@@H](C)CC)[C@@H](C)OC(=O)[C@H](C(C)C)NC1=O [Compound 47, [Pro^11]-KF] ({Hexanoyl(5-Me)}-[dV]TP[dV][dP][Orn][d(aIle)][d(aThr)][d(aIle)][dV]F[Dhb]V; ester 8-C)
A-549
  TGI A-549: 6.78E−06 Molar
  GI50: 6.78 µM
  CC50: 6.78 µM
SK-MEL-28
  GI50: 6.78 µM
  TGI MEL-28: 6.78E−06 Molar
  CC50: 6.78 µM
HT-29
  TGI HT-29: 6.78E−06 Molar
  GI50: 6.78 µM
  CC50: 6.78 µM
LoVo
  GI50: 5.85 µM
  TGI LOVO: 6.78E−06 Molar
  CC50: 6.78 µM
DU-145
  GI50: 6.78 µM
  LC50 (concentration causing 50% net cell kill): 6.78 µM
  TGI DU-145: 6.78E−06 Molar
LNCaP
  TGI LN-caP: 6.78E−06 Molar
  GI50: 3.45 µM
  CC50: 6.78 µM
SK-BR-3
  GI50: 6.78 µM
  LC50: 6.78 µM
  TGI SK-BR-3: 6.78E−06 Molar
IGROV-1
  GI50: 6.78 µM
  LC50 (concentration causing 50% net cell killing): 6.78 µM
  TGI IGROV: 6.78E−06 Molar
IGROV-ET
  GI50: 6.78 µM
  TGI IGROV-ET: 6.78E−06 Molar
  CC50: 6.78 µM
HeLa
  GI50: 6.78 µM
  TGI HELA: 6.78E−06 Molar
  CC50: 6.78 µM
HeLa-APL
  GI50: 6.78 µM
  TGI HELA-APL: 6.78E−06 Molar
  CC50: 6.78 µM
K-562
  GI50: 6.78 µM
  TGI K-562: 6.78E−06 Molar
  CC50: 6.78 µM
PANC-1
  GI50: 5.63 µM
  TGI PANC-1: 6.78E−06 Molar
  CC50: 6.78 µM
